Measured values as given in BindingDB's records for doi:10.1016/j.bmcl.2016.03.041 (Eli Lilly, 2016).
pKi: −log10 of the molar value.

Legend:
[1] = target: T1, Prostaglandin E2 receptor EP3 subtype (Homo sapiens, UniProt P43115); assay: Binding affinity to human EP3
T1 sequence (P43115 whole entry): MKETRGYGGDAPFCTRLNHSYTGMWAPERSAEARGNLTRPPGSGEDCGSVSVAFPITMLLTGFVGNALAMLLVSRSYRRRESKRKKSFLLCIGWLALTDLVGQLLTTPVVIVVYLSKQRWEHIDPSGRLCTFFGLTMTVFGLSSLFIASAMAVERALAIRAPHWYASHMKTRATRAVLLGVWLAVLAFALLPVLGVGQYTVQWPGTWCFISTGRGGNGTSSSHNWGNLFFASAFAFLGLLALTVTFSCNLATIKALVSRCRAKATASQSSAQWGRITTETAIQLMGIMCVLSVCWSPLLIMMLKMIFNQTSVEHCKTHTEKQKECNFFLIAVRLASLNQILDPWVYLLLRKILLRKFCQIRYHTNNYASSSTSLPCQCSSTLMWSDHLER

[2] = target: Prostaglandin E2 receptor EP2 subtype (Homo sapiens, UniProt P43116); assay: Binding affinity to human EP2
Chain of Prostaglandin E2 receptor EP2 subtype (P43116 whole entry): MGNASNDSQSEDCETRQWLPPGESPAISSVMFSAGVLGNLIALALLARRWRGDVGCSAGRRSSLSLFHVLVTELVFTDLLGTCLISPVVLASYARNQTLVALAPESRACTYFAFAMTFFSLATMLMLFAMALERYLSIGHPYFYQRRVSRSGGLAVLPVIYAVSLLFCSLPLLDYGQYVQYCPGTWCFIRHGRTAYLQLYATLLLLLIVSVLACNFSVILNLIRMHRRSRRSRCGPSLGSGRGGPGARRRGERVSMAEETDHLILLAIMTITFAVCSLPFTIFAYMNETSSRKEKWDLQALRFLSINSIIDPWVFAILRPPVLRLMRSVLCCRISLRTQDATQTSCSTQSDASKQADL

[3] = target: T2, Prostaglandin E2 receptor EP1 subtype (Homo sapiens, UniProt P34995); assay: Binding affinity to human EP1
T2 sequence (P34995 whole entry): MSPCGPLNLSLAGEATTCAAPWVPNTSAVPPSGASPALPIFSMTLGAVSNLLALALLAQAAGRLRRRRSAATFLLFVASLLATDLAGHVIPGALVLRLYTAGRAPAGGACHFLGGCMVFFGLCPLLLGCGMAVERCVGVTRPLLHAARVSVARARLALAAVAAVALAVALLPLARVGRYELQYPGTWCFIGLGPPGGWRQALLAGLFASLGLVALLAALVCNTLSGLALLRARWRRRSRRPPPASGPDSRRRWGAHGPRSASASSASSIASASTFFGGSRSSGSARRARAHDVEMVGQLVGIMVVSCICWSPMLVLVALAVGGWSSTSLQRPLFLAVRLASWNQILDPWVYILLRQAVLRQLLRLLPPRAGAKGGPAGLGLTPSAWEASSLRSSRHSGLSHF

pKi [1]: < 4.85
pKi [2]: < 4.72
pKi [3]: < 4.76
SMILES: Cc1ccc(N2CCC(O)CC2)nc1C(=O)Nc1c(C)cc(C(=O)O)cc1C [US8933099, 1]
